Data from ChEMBL document CHEMBL1201862, “PubChem BioAssay data set” (2004).
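Briefly, cells in 96-well plates were exposed to five compound concentrations for 48 h, and endpoints were estimated by linear interpolation. GI50 marks 50% less growth.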 The source made the active and inactive calls. Rule as the data show it: active = GI50 up to about 1.1 µM and inactive = higher.

How the values were obtained:
Assay in all cases: growth of human tumour cells (NCI), 48 h
NCI/ADR-RES = test system: NCI/ADR-RES
SK-OV-3 = test system: SK-OV-3
OVCAR-4 = test system: OVCAR-4
UO-31 = test system: UO-31
MCF7 = test system: MCF7
HL-60 = test system: HL-60
MDA-MB-231 = test system: MDA-MB-231
A498 = test system: A498
CAKI-1 = test system: CAKI-1
MDA-MB-435 = test system: MDA-MB-435
EKVX = test system: EKVX
CCRF-CEM = test system: CCRF-CEM
UACC-62 = test system: UACC-62
SK-MEL-28 = test system: SK-MEL-28
K562 = test system: K562
MDA-N = test system: MDA-N
OVCAR-8 = test system: OVCAR-8
OVCAR-5 = test system: OVCAR-5
A549 = test system: A549
ACHN = test system: ACHN

Measured: GI50

CCOC(=O)c1csc(NC(=O)CCN2CCOCC2)n1
inactive: NCI/ADR-RES 48.5 µM | SK-OV-3 > 100 µM | OVCAR-4 > 100 µM | UO-31 78.5 µM | MCF7 43.8 µM | HL-60 27.7 µM | MDA-MB-231 > 100 µM | A498 > 100 µM | CAKI-1 32 µM | MDA-MB-435 > 100 µM | EKVX 77.3 µM | CCRF-CEM 29.6 µM | UACC-62 > 100 µM | SK-MEL-28 > 100 µM | K562 74.8 µM | MDA-N 59.7 µM | OVCAR-8 29.8 µM | OVCAR-5 > 100 µM | A549 > 100 µM | ACHN 44.5 µM

Cc1ccc(-c2cs/c(=N\c3c(C)n(C)n(-c4ccccc4)c3=O)n2CCO)cc1
inactive: NCI/ADR-RES 65.6 µM | SK-OV-3 > 100 µM | OVCAR-4 > 100 µM | UO-31 > 100 µM | MCF7 72.9 µM | HL-60 > 100 µM | MDA-MB-231 > 100 µM | A498 70 µM | CAKI-1 > 100 µM | MDA-MB-435 > 100 µM | EKVX 84.7 µM | CCRF-CEM > 100 µM | UACC-62 > 100 µM | SK-MEL-28 > 100 µM | K562 97.3 µM | MDA-N > 100 µM | OVCAR-8 > 100 µM | OVCAR-5 > 100 µM | A549 > 100 µM | ACHN 46.5 µM
